From publication PMC8217813, “Bridging Computational Vaccinology and Vaccine Development Through Systematic Identification, Characterization, and Downselection of Conserved and Variable Circumsporozoite Protein CD4 T Cell Epitopes From Diverse Plasmodium falciparum Strains” (Frontiers in Immunology, 2021)
Where two headings read alike, the source gives them in different places. Peptide text beside a SMILES is read from it.

Legend:
HLA B*0702 = target: T1, HLA B*0702 (Homo sapiens, UniProt P01889); experiment: biochemical; format: binding; settings: allele B0702, cell-free competition with fluorescently labeled control peptide, fluorescence polarization at 72 hours; for IC50: read-out: IC50
T1 construct: Pure Protein, LLC (ran the assay)

HLA A*0201 = target: T2, HLA A*0201 (Homo sapiens, UniProt P04439, D140Y/D185E/D98H/E176V/E277Q/G131W/G231S/I119V/I121R/I166T/I218V/L300P/L318F/N151K/N90K/P208A/P217A/Q86G/Q94H/R138H/R169H/T345S); experiment: biochemical; format: binding
T2 construct: Pure Protein, LLC (ran the assay)

HLA A*0301 = target: T3, HLA A*0301 (Homo sapiens, UniProt P04439); experiment: In vitro class I HLA binding competition assay (fluorescence polarization); settings: for IC50 (nM): allele A0301, cell-free competition with fluorescently labeled control peptide, fluorescence polarization at 72 hours
T3 construct: Pure Protein, LLC (ran the assay)

HLA A*0101 = target: T4, HLA A*0101 (Homo sapiens, UniProt P04439, A114D/A174V/A182V/D101N/D185E/E176A/E190D/L180R/Q94H/R68K/S129P/T187R/V100A/V91M/W191G); experiment: biochemical; format: binding; settings: allele A0101, cell-free competition with fluorescently labeled control peptide, fluorescence polarization at 72 hours
T4 construct: Pure Protein, LLC (ran the assay)

HLA B*4402 = HLA B*4402 (Homo sapiens, UniProt P01889, A223V/A65T/A93T/A95T/D201E/D98Y/E176V/E187L/E204Q/E69K/G107R/H137Y/K202T/L105A/L119I/N104T/N87E/Q56L/Q94N/R106L/R155S/R180D/S101N/S121R/S35A/S48T/T118I/V36M/W191S/Y140D/Y91S); experiment: In vitro class I HLA binding competition assay (fluorescence polarization); settings: allele B4402; cell-free competition with fluorescently labeled control peptide, fluorescence polarization at 72 hours
Method: The cell-free class I HLA binding assay in use at Pure Protein, LLC allows for in vitro quantification of peptide-HLA binding affinity in a competition format. In this assay, a fluorescently labeled, high binding, control peptide is loaded onto 384-well ½-area plates along with unlabeled experimental peptides. To remove endogenous peptides and render the HLA A and B molecules receptive to binding, HLA is heated at 53°C for 15 minutes and immediately added to the assay. The mixture is then allowed to stand for three days. Once the mixture has reached steady equilibrium (at 72 hours), displacement of the high binding control peptide is measured through Fluorescence Polarization. Binding of experimental peptides is expressed as the percent inhibition of the labeled control peptide (experimental fluorescence / control fluorescence, multiplied by 100). The percent inhibition values for each experimental peptide (across a range of molar concentrations) are used to calculate the concentration which inhibits 50% of the labeled control peptide’s specific binding. This value is referred to as the peptide’s IC50.

[1] = allele A0201, cell-free competition with fluorescently labeled control peptide, fluorescence polarization at 72 hours, read-out: IC50

CC[C@H](C)[C@H](NC(=O)[C@H](CCCNC(=N)N)NC(=O)[C@@H](NC(=O)[C@@H](N)CCC(N)=O)C(C)C)C(=O)N[C@@H](CCCCN)C(=O)N1CCC[C@H]1C(=O)NCC(=O)N[C@@H](CO)C(=O)N[C@@H](C)C(=O)O [Cluster 343_3D7] (H-QVRIKPGSA-OH)
IC50 (HLA B*0702): 134 µM

NPNANPNAN [131_3D7 (9)]
IC50 (nM) (HLA B*0702): Non-Binder

CC[C@H](C)[C@H](NC(=O)[C@H](CCCCN)NC(=O)[C@H](CC(C)C)NC(=O)[C@@H](N)Cc1ccc(O)cc1)C(=O)N[C@H](C(=O)N[C@@H](CCC(N)=O)C(=O)N[C@@H](CC(N)=O)C(=O)N[C@@H](CO)C(=O)N[C@@H](CC(C)C)C(=O)O)[C@@H](C)CC [Cluster 319_ICS5] (H-YLKIIQNSL-OH)
IC50 (HLA A*0201): 4.88 µM

C[C@H](NC(=O)[C@H](CO)NC(=O)CNC(=O)[C@@H]1CCCN1C(=O)[C@@H](N)CCCCN)C(=O)NCC(=O)N[C@@H](CCCCN)C(=O)N[C@@H](CO)C(=O)N[C@@H](CCCCN)C(=O)O [347_CVX36 (9)] (H-KPGSAGKSK-OH)
IC50 (HLA B*0702): 53.1 µM

CC[C@H](C)[C@H](NC(=O)[C@@H](N)CCCNC(=N)N)C(=O)N[C@@H](CCCCN)C(=O)N1CCC[C@H]1C(=O)NCC(=O)N[C@@H](CO)C(=O)N[C@@H](C)C(=O)N[C@@H](CC(N)=O)C(=O)N[C@@H](CCCCN)C(=O)O [Cluster 345_3D7] (H-RIKPGSANK-OH)
IC50 (HLA A*0301): 21.3 µM

CC[C@H](C)[C@H](NC(=O)[C@H](CC(=O)O)NC(=O)[C@H](CC(N)=O)NC(=O)[C@H](C)NC(=O)[C@H](Cc1ccc(O)cc1)NC(=O)[C@H](CC(=O)O)NC(=O)[C@H](CC(C)C)NC(=O)[C@@H](N)CCC(=O)O)C(=O)N[C@@H](CCC(=O)O)C(=O)N[C@@H](CCCCN)C(=O)O [Cluster 357_3D7] (H-ELDYANDIEK-OH)
IC50 (HLA A*0301): 556 µM
IC50 (nM) (HLA A*0101): Non-Binder

CC(C)C[C@H](N)C(=O)N[C@@H](CO)C(=O)N[C@H](C(=O)N[C@@H](CCC(=O)O)C(=O)N[C@@H](Cc1c[nH]c2ccccc12)C(=O)N[C@@H](CO)C(=O)N1CCC[C@H]1C(=O)N[C@@H](CS)C(=O)N[C@@H](CO)C(=O)N[C@H](C(=O)O)C(C)C)[C@@H](C)O [327_3D7 (10)] (H-LSTEWSPCSV-OH)
IC50 (HLA A*0201; [1]): 4.38 µM

CC[C@H](C)[C@H](NC(=O)[C@H](CC(=O)O)NC(=O)[C@H](CC(N)=O)NC(=O)[C@H](CCC(=O)O)NC(=O)[C@H](Cc1ccc(O)cc1)NC(=O)[C@H](CC(=O)O)NC(=O)[C@H](CC(C)C)NC(=O)[C@@H](N)CCC(N)=O)C(=O)N[C@@H](CCC(=O)O)C(=O)N[C@@H](CCCCN)C(=O)O [Cluster 357_CVX89] (H-QLDYENDIEK-OH)
IC50 (nM) (HLA A*0301): Non-Binder
IC50 (HLA A*0101; read-out: IC50): 726 µM

IEKKICKMEK [Cluster 364_3D7]
IC50 (nM) (HLA A*0301): Non-Binder

KPGSADKPKD [347_CVX69 (10)]
IC50 (nM) (HLA B*0702): Non-Binder

KPGSANKPKD [Cluster 347_3D7]
IC50 (nM) (HLA B*0702): Non-Binder

CC[C@H](C)[C@H](NC(=O)[C@H](CCCCN)NC(=O)[C@H](CC(N)=O)NC(=O)[C@H](CC(C)C)NC(=O)[C@H](Cc1ccc(O)cc1)NC(=O)[C@H](CCC(=O)O)NC(=O)[C@H](CCCCN)NC(=O)[C@@H](NC(=O)[C@@H](N)Cc1c[nH]cn1)[C@@H](C)CC)C(=O)O [Cluster 315_3D7] (H-HIKEYLNKI-OH)
IC50 (HLA A*0201; [1]): 259 µM

CC[C@H](C)[C@H](NC(=O)[C@H](CCCCN)NC(=O)[C@H](CCCCN)NC(=O)[C@H](CC(C)C)NC(=O)[C@@H](N)Cc1ccc(O)cc1)C(=O)N[C@@H](CCC(N)=O)C(=O)N[C@@H](Cc1ccc(O)cc1)C(=O)N[C@@H](CO)C(=O)N[C@@H](CC(C)C)C(=O)O [Cluster 319_ICS7] (H-YLKKIQYSL-OH)
IC50 (HLA A*0201): 2.58 µM

CC[C@H](C)[C@H](N)C(=O)N[C@@H](CCC(=O)O)C(=O)N[C@@H](CCC(N)=O)C(=O)N[C@@H](Cc1ccc(O)cc1)C(=O)N[C@@H](CC(C)C)C(=O)N[C@@H](CCCCN)C(=O)N[C@@H](CCCCN)C(=O)N[C@H](C(=O)N[C@@H](CCC(N)=O)C(=O)N[C@@H](Cc1ccc(O)cc1)C(=O)O)[C@@H](C)CC [Cluster 316_ICS7] (H-IEQYLKKIQY-OH)
IC50 (nM) (HLA A*0101): Non-Binder
IC50 (HLA B*4402): 157 µM

LDYANDIEK [Cluster 358_3D7]
IC50 (nM) (HLA A*0301): Non-Binder

NANPNANPNK [Cluster 265_3D7]
IC50 (nM) (HLA A*0301): Non-Binder

CC[C@H](C)[C@H](NC(=O)[C@H](CCCCN)NC(=O)[C@H](CCCCN)NC(=O)[C@H](CC(C)C)NC(=O)[C@H](Cc1ccc(O)cc1)NC(=O)[C@H](CCC(=O)O)NC(=O)[C@@H](NC(=O)[C@@H](NC(=O)[C@@H](N)Cc1c[nH]cn1)[C@@H](C)CC)[C@@H](C)O)C(=O)O [Cluster 315_ICS2] (H-HITEYLKKI-OH)
IC50 (HLA A*0201): 148 µM

CKMEKCSSV [369_3D7 (9)]
IC50 (nM) (HLA A*0201; allele A0201, cell-free competition with fluorescently labeled control peptide, fluorescence polarization at 72 hours): Non-Binder

VTCGNGIQV [Cluster 336_3D7]
IC50 (nM) (HLA A*0301): Non-Binder
IC50 (nM) (HLA A*0101): Non-Binder

CSCC[C@H](N)C(=O)N1CCC[C@H]1C(=O)N[C@@H](CC(N)=O)C(=O)N[C@@H](CC(=O)O)C(=O)N1CCC[C@H]1C(=O)N[C@@H](CC(N)=O)C(=O)N[C@@H](CCCNC(=N)N)C(=O)N[C@@H](CC(N)=O)C(=O)N[C@H](C(=O)O)C(C)C [Cluster 285_3D7]
IC50 (HLA B*0702): 511 µM
IC50 (nM) (HLA B*4402): Non-Binder

NPNANPNANP [131_3D7 (10)]
IC50 (nM) (HLA B*0702): Non-Binder

CC(C)C[C@H](NC(=O)[C@@H](N)CCCCN)C(=O)N[C@@H](CCCNC(=N)N)C(=O)N[C@@H](CCCCN)C(=O)N1CCC[C@H]1C(=O)N[C@@H](CCCCN)C(=O)N[C@@H](Cc1c[nH]cn1)C(=O)N[C@@H](CCCCN)C(=O)N[C@@H](CCCCN)C(=O)O [CL1-61]
IC50 (HLA A*0301): 3.06 µM

CC[C@H](C)[C@H](NC(=O)[C@H](CCCCN)NC(=O)[C@H](CCCCN)NC(=O)[C@H](CCC(=O)O)NC(=O)[C@@H](NC(=O)[C@H](CC(=O)O)NC(=O)[C@H](CC(N)=O)NC(=O)[C@H](CCC(=O)O)NC(=O)[C@@H](N)Cc1ccc(O)cc1)[C@@H](C)CC)C(=O)O [Cluster 360_CVX298] (H-YENDIEKKI-OH)
IC50 (HLA B*4402): 7.36 µM

SPCSVTCGNG [Cluster 332_3D7]
IC50 (nM) (HLA B*0702): Non-Binder

NEEPSDKHIK [308_3D7 (10)]
IC50 (nM) (HLA A*0101): Non-Binder
IC50 (nM) (HLA B*4402): Non-Binder

KDELDYENDI [Cluster 355_CVX124]
IC50 (nM) (HLA B*4402): Non-Binder

QLDYANDIEK [Cluster 357_CVX111]
IC50 (nM) (HLA A*0301): Non-Binder

NEEPSDKHI [308_3D7(9)]
IC50 (nM) (HLA B*4402): Non-Binder

TEYLKKIQN [Cluster 317_ICS2]
IC50 (nM) (HLA B*4402): Non-Binder

CC[C@H](C)[C@H](NC(=O)CNC(=O)[C@H](CC(N)=O)NC(=O)CNC(=O)[C@H](CS)NC(=O)[C@@H](NC(=O)[C@@H](NC(=O)[C@@H](N)CO)C(C)C)[C@@H](C)O)C(=O)N[C@@H](CCC(N)=O)C(=O)N[C@H](C(=O)O)C(C)C [Cluster 335_3D7] (H-SVTCGNGIQV-OH)
IC50 (nM) (HLA B*0702): Non-Binder
IC50 (HLA A*0201; [1]): 489 µM

NPNVDPNANP [Cluster 107_3D7]
IC50 (nM) (HLA B*0702): Non-Binder

CC[C@H](C)[C@H](NC(=O)[C@@H](N)CCCNC(=N)N)C(=O)N[C@@H](CCCCN)C(=O)N1CCC[C@H]1C(=O)NCC(=O)N[C@@H](CO)C(=O)N[C@@H](C)C(=O)N[C@@H](CC(=O)O)C(=O)N[C@@H](CCCCN)C(=O)O [Cluster 345_CVX79] (H-RIKPGSADK-OH)
IC50 (HLA A*0301): 17.7 µM

KMEKCSSVF [Cluster 370_3D7]
IC50 (nM) (HLA B*0702): Non-Binder
IC50 (nM) (HLA A*0101): Non-Binder

DENANANSA [Cluster 294_3D7]
IC50 (nM) (HLA B*4402): Non-Binder

KHIKEYLNK [Cluster 314_3D7]
IC50 (nM) (HLA A*0301): Non-Binder

KEYLNKIQNS [Cluster 317_3D7]
IC50 (nM) (HLA B*4402): Non-Binder
